pKd: −log10 of the molar value.
Biological target: β-tubulin (Homo sapiens, UniProt P07437)
Test: SPR
Format: binding

Chain of β-tubulin (P07437 whole entry): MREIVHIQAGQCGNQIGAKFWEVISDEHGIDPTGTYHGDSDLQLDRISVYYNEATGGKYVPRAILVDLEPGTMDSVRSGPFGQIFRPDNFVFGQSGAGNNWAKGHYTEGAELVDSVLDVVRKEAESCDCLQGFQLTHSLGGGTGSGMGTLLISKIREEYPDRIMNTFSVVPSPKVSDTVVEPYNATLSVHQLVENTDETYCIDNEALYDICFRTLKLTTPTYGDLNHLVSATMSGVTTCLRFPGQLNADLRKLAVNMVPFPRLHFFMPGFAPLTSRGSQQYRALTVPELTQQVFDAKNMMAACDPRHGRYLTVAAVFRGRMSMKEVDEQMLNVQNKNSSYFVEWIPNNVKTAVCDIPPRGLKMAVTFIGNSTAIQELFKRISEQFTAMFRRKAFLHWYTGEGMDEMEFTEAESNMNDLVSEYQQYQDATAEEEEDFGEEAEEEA

| SMILES | pKd |
| --- | --- |
| O=c1c(O)c(-c2ccc(O)c(O)c2)oc2cc(O)ccc12 [fisetin] | 5.80 |
| CC(=O)O[C@H]1C(=O)[C@@]2(C)[C@H]([C@H](OC(=O)c3ccccc3)[C@]3(O)C[C@H](OC(=O)[C@H](O)[C@@H](NC(=O)c4ccccc4)c4ccccc4)C(C)=C1C3(C)C)[C@]1(OC(C)=O)CO[C@@H]1C[C@@H]2O [paclitaxel] | 5.65 |

From PMC4570246 (Cancer letters, 2015)
